From PMC4114533, “Synthesis, Anti-tubulin and Antiproliferative SAR of Steroidomimetic Dihydroisoquinolinones” (Chemmedchem, 2014)
Where two headings read alike, the source gives them in different places.

Key:
[1] = tested on: Bovine brain tubulin; set-up: method as in PMID 20225862; details: data taken from the literature ref 3; read-out: TP IC50 (tubulin polymerisation); cited from earlier work
[2] = biological target: T1, Bovine brain tubulin (Bos taurus, UniProt P81947+Q6B856); set-up: method as in PMID 20225862; details: data taken from the literature ref 3; cited from earlier work
T1 construct: Bovine brain tubulin, prepared as described previously,[16] was used in studies presented here; from tissue; host or cells: bovine brain

[3] = tested on: MDA MB-231 human breast cancer cells; experiment: Antiproliferative assay (WST-1, 96 h), MDA MB-231; type: cell-based; details: MDA MB-231 cells, WST-1, mean of three determinations
Experimental: (§1) Cell lines: DU-145 (brain metastasis carcinoma of the prostate) and MDA MB-231 (metastatic pleural effusion of breast adenocarcinoma) established human cell lines were obtained from ATCC Global Bioresource Center. Cells were maintained in a 5 % CO2 humidified atmosphere at 37 °C in RPMI-1640 medium, supplemented with 10 % fetal bovine serum, penicillin, (100 U mL^−1), and streptomycin (0.1 mg mL^−1). The effect of drugs on tubule formation was assessed using an angiogenesis kit (TCS-Cellworks).
(§2) Antiproliferative assays: DU-145 and MDA MB-231 cells were seeded into 96-well microtitre plates (5000 cells per well) and treated with compound (10^−9–10^−4 M) or with vehicle control. At 96 h post-treatment, live cell counts were determined by WST-1 cell proliferation assay (Roche, Penzberg, Germany), as per the manufacturer’s instructions. Viability results were expressed as a percentage of mean control values resulting in the calculation of the 50 % growth inhibition (GI50). All experiments were performed in triplicate.

[4] = tested on: DU-145 human prostate cancer cells; experiment: Antiproliferative assay (WST-1, 96 h), DU-145; type: cell-based; details: for GI50: Homo sapiens, DU-145 cells, 96 h, WST-1, mean of three determinations; for fold more active than the 3′-methoxy derivatives: vs 3′-methoxy derivatives 16 b and 17 b
Experimental: as §1, §2

[5] = biological target: T1, Bovine brain tubulin; experiment: Inhibition of [3H]colchicine binding to tubulin; details: mean ±SD; for inhibition at 5 µM: 5 μM inhibitor, 1.0 μM tubulin, 5.0 μM [3H]colchicine, read-out: CB [% inhib.] 5 μM inhibitor; for inhibition at 1 µM: 1 μM inhibitor, read-out: CB [% inhib.] 1 μM inhibitor
Experimental: (§3) Tubulin assays: Bovine brain tubulin, prepared as described previously,[16] was used in studies presented here. Assembly IC50 values were determined as described in detail elsewhere.[17] Briefly, 1.0 mg mL^−1 (10 μM) tubulin was pre-incubated without GTP with varying compound concentrations for 15 min at 30 °C. Reaction mixtures were placed on ice, and GTP (final concentration, 0.4 mM) was added. The reaction mixtures were transferred to cuvettes, held at 0 °C in a recording spectrophotometer. Baselines were established at 0 °C, and increase in turbidity was followed for 20 min following a rapid (<30 s) jump to 30 °C. Compound concentrations required to decrease the turbidity increase by 50 % were determined. The method for measuring inhibition of the binding of [^3H]colchicine to tubulin was described in detail previously.[18] Reaction mixtures contained 0.1 mg mL^−1 (1.0 μM) tubulin, 5.0 μM [^3H]colchicine, and potential inhibitor at 5.0 μM. […] A minimum of two experiments were performed with each compound.

[6] = tested on: Bovine brain tubulin; experiment: Tubulin polymerisation (assembly) assay; type: biochemical; details: 10 μM tubulin, mean ±SD of at least two determinations; read-out: TP IC50 (tubulin polymerisation)
Experimental: as §3

[7] = tested on: HUVECs within a matrix of human diploid fibroblasts of dermal origin; experiment: In vitro model of angiogenesis (tubule formation, co-culture); type: cell-based; details: 25 nM and 50 nM, VEGF-stimulated, quantified after 11 days
Experimental: Compounds 16 f and 17 f were also assayed for anti-angiogenic activity in an in vitro model of angiogenesis, wherein endothelial cells co-cultured in a matrix of human dermal fibroblasts are used to assess anti-angiogenic potential (Figure 2). When stimulated with VEGF the endothelial cells proliferate and migrate through the matrix to form tubule-like structures. The extent of tubule formation was quantified after 11 days as described elsewhere.[14] […] Quantification carried out by calculating total pixel length reflects the lack of tubule formation.
Cell lines: DU-145 (brain metastasis carcinoma of the prostate) and MDA MB-231 (metastatic pleural effusion of breast adenocarcinoma) established human cell lines were obtained from ATCC Global Bioresource Center. […] The effect of drugs on tubule formation was assessed using an angiogenesis kit (TCS-Cellworks).
Anti-angiogenic assays: HUVECs were cultured in a 24-well plate within a matrix of human diploid fibroblasts of dermal origin in optimised medium supplied by the company. […] The extent of tubule formation was then quantified, either manually by eye or using free software available through the National Institutes of Health website (NIH image [Mac version] from http://rsb.info.nih.gov/nih-image/download.html). […] After correcting for background the software counted the number of pixels representing tubules. […]

[8] = biological target: carbonic anhydrase; experiment: Carbonic anhydrase inhibition; type: biochemical
[9] = tested on: MDA MB-231 human breast cancer cells; set-up: method as in PMID 24124095; details: MDA MB-231 cells; data taken from the literature ref 8; cited from earlier work
[10] = tested on: DU-145 human prostate cancer cells; set-up: method as in PMID 24124095; details: DU-145 cells; data taken from the literature ref 8; cited from earlier work
[11] = set-up: method as in PMID 22247790, PMID 24124095; details: THIQ series, cell line not printed ref 7, 8; cited from earlier work

T1 sequence (Q6B856 whole entry): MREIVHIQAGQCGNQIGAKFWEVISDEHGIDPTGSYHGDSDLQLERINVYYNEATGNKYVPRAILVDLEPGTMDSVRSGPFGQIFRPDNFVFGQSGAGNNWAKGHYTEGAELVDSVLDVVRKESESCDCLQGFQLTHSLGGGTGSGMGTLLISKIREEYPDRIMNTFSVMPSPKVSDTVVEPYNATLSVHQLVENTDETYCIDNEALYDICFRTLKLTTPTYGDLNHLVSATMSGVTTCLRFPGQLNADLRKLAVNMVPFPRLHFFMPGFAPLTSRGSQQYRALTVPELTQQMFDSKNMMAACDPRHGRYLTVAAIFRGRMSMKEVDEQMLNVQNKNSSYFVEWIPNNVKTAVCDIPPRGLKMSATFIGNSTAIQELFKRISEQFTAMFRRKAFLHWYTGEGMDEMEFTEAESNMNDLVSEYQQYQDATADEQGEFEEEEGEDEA
T1 sequence (P81947 whole entry): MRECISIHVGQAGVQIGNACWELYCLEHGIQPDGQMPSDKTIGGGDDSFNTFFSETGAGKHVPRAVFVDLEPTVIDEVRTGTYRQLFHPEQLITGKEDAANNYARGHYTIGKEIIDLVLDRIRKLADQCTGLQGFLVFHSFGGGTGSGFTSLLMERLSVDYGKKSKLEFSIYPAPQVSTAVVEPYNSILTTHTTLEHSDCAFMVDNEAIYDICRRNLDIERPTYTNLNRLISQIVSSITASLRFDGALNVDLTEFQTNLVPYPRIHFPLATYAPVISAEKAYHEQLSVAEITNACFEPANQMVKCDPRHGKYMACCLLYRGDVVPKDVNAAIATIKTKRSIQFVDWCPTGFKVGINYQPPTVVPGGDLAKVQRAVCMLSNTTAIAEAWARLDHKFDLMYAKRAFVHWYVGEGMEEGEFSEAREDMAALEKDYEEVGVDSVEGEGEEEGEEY

Row | GI50 [3] [nM] | GI50 [4] [nM] | melting point [°C] | Structure (SMILES) | further results
1 | > 100000 | > 100000 | 170 to 173 | COc1cc2c(cc1OS(N)(=O)=O)CCN(S(=O)(=O)c1cccc(Cl)c1)C2=O [12 d, 2-((3-Chlorophenyl)sulfonyl)-7-methoxy-6-(sulfamoyloxy)-3,4-dihydroisoquinolin-1(2H)-one] | 
2 | 13000 | > 100000 | 181 to 186 | COC(=O)c1ccccc1S(=O)(=O)N1CCc2cc(OS(N)(=O)=O)c(OC)cc2C1=O [12 e, Methyl 2-((7-methoxy-1-oxo-6-(sulfamoyloxy)-3,4-dihydroisoquinolin-2(1H)-yl)sulfonyl)benzoate] | 
3 | 1600 | 2390 | 199 to 200 | COc1cc2c(cc1O)CCN(C(=O)c1ccc(OC)c(OC)c1)C2=O [16 e, 6-Hydroxy-2-(3,4-dimethoxybenzoyl)-7-methoxy-3,4-dihydroisoquinolin-1(2H)-one] | 
4 | 161 | 215 |  | COc1cc(OC)cc(C(=O)N2CCc3cc(O)c(OC)cc3C2=O)c1 [16 f, 6-Hydroxy-2-(3,5-dimethoxybenzoyl)-7-methoxy-3,4-dihydroisoquinolin-1(2H)-one] | inhibition at 5 µM [5]: 81 ± 0.7%; fold more active than the 3′-methoxy derivatives [4]: > 10 fold; IC50 [6]: 1500 ± 100 nM; formation of tubule-like structures [7]: almost completely inhibits
5 | > 100000 | 25000 | 171 to 172 | COc1cc2c(cc1OS(N)(=O)=O)CCN(C(=O)c1cccc(C#N)c1)C2=O [17 c, 2-(3-Cyanobenzoyl)-7-methoxy-6-sulfamoyloxy-3,4-dihydroisoquinolin-1(2H)-one] | 
6 |  | > 100000 | 171 to 172 | COc1ccc(C(=O)N2CCc3cc(OS(N)(=O)=O)c(OC)cc3C2=O)cc1 [17 d, 2-(4-Methoxybenzoyl)-7-methoxy-6-sulfamoyloxy-3,4-dihydroisoquinolin-1(2H)-one] | antiproliferative activity (in words) ([4]; in vitro antiproliferative activity, result in words): inactive
7 | 118 | 179 |  | COc1cc(OC)cc(C(=O)N2CCc3cc(OS(N)(=O)=O)c(OC)cc3C2=O)c1 [17 f, 2-(3,5-Dimethoxybenzoyl)-7-methoxy-6-sulfamoyloxy-3,4-dihydroisoquinolin-1(2H)-one] | inhibition at 1 µM [5]: 65 ± 3%; inhibition at 5 µM [5]: 89 ± 0.1%; IC50 [8]: 890 nM; fold more active than the 3′-methoxy derivatives [4]: > 10 fold; IC50 [6]: 1300 ± 10 nM; formation of tubule-like structures [7]: almost completely inhibits
8 | 275 | 166 |  | COc1cc2c(cc1OS(N)(=O)=O)CCN(C(=O)c1cc(OC)c(OC)c(OC)c1)C2=O [17 g, 7-Methoxy-2-(3,4,5-trimethoxybenzoyl)-6-sulfamoyloxy-3,4-dihydroisoquinolin-1(2H)-one] | inhibition at 5 µM [5]: 85 ± 2%; IC50 [6]: 1200 ± 30 nM

Continued, compound first:

Row | Structure (SMILES) | GI50 [3] [nM] | GI50 [4] [nM] | melting point [°C] | further results
9 | COc1cc2c(cc1OS(N)(=O)=O)CC[C@@H]1[C@@H]2CC[C@]2(C)[C@@H](OS(N)(=O)=O)CC[C@@H]12 [1 a] |  |  |  | IC50 [1]: 2200 ± 300 nM; CB [% inhib.] 5 μM inhibitor [2]: 28±3%
10 | COc1cc2c(cc1OS(N)(=O)=O)CC[C@@H]1[C@@H]2CC[C@]2(C)[C@@H](CC#N)CC[C@@H]12 [1 b] |  |  |  | IC50 [1]: 1300 ± 80 nM; CB [% inhib.] 5 μM inhibitor [2]: 78±0.9%
11 | CCc1cc2c(cc1OS(N)(=O)=O)CC[C@@H]1[C@@H]2CC[C@]2(C)[C@@H](OS(N)(=O)=O)CC[C@@H]12 [1 c] |  |  |  | IC50 [1]: 1300 ± 10 nM; CB [% inhib.] 5 μM inhibitor [2]: 45±4%
12 | COc1ccc(S(=O)(=O)N2CCc3cc(O)c(OC)cc3C2=O)cc1 [11 c, 6-Hydroxy-7-methoxy-2-((4-methoxyphenyl)sulfonyl)-3,4-dihydroisoquinolin-1(2H)-one] | > 100000 | > 100000 | 202 to 204 | 
13 | COc1cc2c(cc1O)CCN(S(=O)(=O)c1cccc(Cl)c1)C2=O [11 d, 6-Hydroxy-7-methoxy-2-((3-chlorophenyl)sulfonyl)-3,4-dihydroisoquinolin-1(2H)-one] | > 100000 | > 100000 | 178 to 181 | 
14 | COC(=O)c1ccccc1S(=O)(=O)N1CCc2cc(O)c(OC)cc2C1=O [11 e, Methyl 2-((6-hydroxy-7-methoxy-1-oxo-3,4-dihydroisoquinolin-2(1H)-yl)sulfonyl)benzoate] | > 100000 | > 100000 | 236 to 239 | 
15 | COc1cc2c(cc1OS(N)(=O)=O)CCN(S(=O)(=O)c1ccccc1OC)C2=O [12 a, 7-Methoxy-2-((2-methoxyphenyl)sulfonyl)-6-(sulfamoyloxy)-3,4-dihydroisoquinolin-1(2H)-one] | > 100000 | > 100000 | 195 to 197 | 
16 | COc1cccc(S(=O)(=O)N2CCc3cc(OS(N)(=O)=O)c(OC)cc3C2=O)c1 [12 b, 7-Methoxy-2-((3-methoxyphenyl)sulfonyl)-6-(sulfamoyloxy)-3,4-dihydroisoquinolin-1(2H)-one] | > 100000 | > 100000 | 164 to 166 | 
17 | COc1cc2c(cc1O)CCN(C(=O)c1cc(OC)c(OC)c(OC)c1)C2 [18 c] |  |  |  | GI50 [9]: 733 nM; GI50 [10]: 921 nM
18 | COc1cc2c(cc1OS(N)(=O)=O)CCN(C(=O)c1cc(OC)c(OC)c(OC)c1)C2 [19 c] |  |  |  | GI50 [9]: 1720 nM; GI50 [10]: 1810 nM
19 | COc1ccc(/C=C\c2cc(OC)c(OC)c(OC)c2)cc1O [CA-4, combretastatin A-4, reference compound] |  |  |  | inhibition at 1 µM [5]: 90 ± 0.2%
20 | COc1cccc(CN2CCc3cc(OS(N)(=O)=O)c(OC)cc3C2)c1 [compound 2] |  |  |  | GI50 [11]: 2100 nM
